Data set [1] deals with MMP-13. In words: MMP-13 concentration in synovial fluid of osteoarthritis model knee joints (ELISA). As to conditions: various concentrations, sequential measurement, versus control knees. In kind it is in vivo, rabbit. As for the experimental part:
(§1) Sequential biochemical examinations of blood and synovial fluid were also performed (pre-administration and fourth- and eighth-week post-administration of water-solubilized fullerene). The observed biochemical examination items were (A) hepatic function (GOT and GPT), renal function (urea nitrogen and creatinine), and electrolytes (Na, K, and Cl), (B) extracellular matrix-degrading enzyme production ability (MMP-1, 3, and 13), and (C) cartilage matrix-synthesizing ability (proteoglycan). The items of (A) were measured by commercially available testing equipments and items of (B) and (C) were measured by ELISA method.
A general note: ELISA stands for enzyme-linked immunosorbent assay.

Another data set has as its system cultured chondrocytes. The data set can be described thus: Chondrocyte-proliferation ability under cartilage degenerating factors. In kind it is cell-based. As to conditions: cultured chondrocytes treated with IL-1β and H2O2.
In the next data set the test system is MMP-1. The data set can be described thus: MMP-1 concentration in synovial fluid of osteoarthritis model knee joints (ELISA). In kind it is in vivo, rabbit. As to conditions: various concentrations, sequential measurement, versus control knees. Here is the method: as §1
The test system of data set [2] is MMP-13. In words: MMP-13 production in cultured chondrocytes treated with cartilage degenerating factor (ELISA). The conditions noted are these: for Production of MMP-13: IL-1β or H2O2 treated chondrocytes, 50 or 100 μM, 24 h. The format is cell-based, human. Here is the method: Chondrocytes isolated from human articular cartilage tissues were used for cultured cells. After obtaining informed consent, cartilage tissues were collected from surgically-removed tissues from eight osteoarthritis patients. The collected tissues were sliced and then treated in a liquid low-glucose Dulbecco's modified Eagle's medium (DMEM, manufactured by Gibco Co.) containing 1.5 mg/ml collagenase B at 37° C. overnight, to isolate chondrocytes for culture. The cells were normally cultured in a culture flask (culture area: 25 cm^2), and in a polystyrene culture dish (diameter: 6 cm) for use in the experiments. […]
Influence of hydroxylated C60 fullerene on cartilage matrix-degrading enzyme production which is enhanced by cartilage catabolism inducers was analyzed using the enzyme-linked immunoassay (ELISA) method.
Chondrocytes that had been isolated and cultured by the above method (1) were subjected to two passage cultures. […] After a 24 hour incubation, the culture supernatant was collected, and the concentrations of cartilage matrix-degrading enzymes, matrix metalloprotease (MMP)-1, 3, and 13, were measured.
The concentrations of MMP-1, MMP-3, and MMP-13 in the culture supernatant were determined using ELISA kits (kits for MMP-1 and MMP-3, manufactured by R&D Co.; and a kit for MMP-13, manufactured by Amersham), which is the standard technique currently known in the art. […] 100 μl of 1.5 N H3PO4 was added to each well to stop the color reaction, and the absorbance at 450 nm was measured using a microtiter plate reader. According to the instructions provided by the manufacturer, the measured concentrations were calibrated using a lyophilized control reagent.

Data set [3] has as its system osteoarthritis patient-derived chondrocytes. In words: Cytotoxicity test (XTT method) on chondrocytes. The format is cell-based, human. As to conditions: for Cell survival rate (%): relative to control (medium alone) = 100%. As for the experimental part: Chondrocytes isolated from human articular cartilage tissues were used for cultured cells. After obtaining informed consent, cartilage tissues were collected from surgically-removed tissues from eight osteoarthritis patients. The collected tissues were sliced and then treated in a liquid low-glucose Dulbecco's modified Eagle's medium (DMEM, manufactured by Gibco Co.) containing 1.5 mg/ml collagenase B at 37° C. overnight, to isolate chondrocytes for culture. The cells were normally cultured in a culture flask (culture area: 25 cm^2), and in a polystyrene culture dish (diameter: 6 cm) for use in the experiments. The cell culture was performed using a DMEM medium added with inactivated fetal bovine serum (FBS, manufactured by TRACE Co.) at 10% volume of the medium, and also 2 mM L-glutamine, 25 mM HEPES, and penicillin and streptomycin at 100 units/ml, in either a CO2 incubator (normoxic condition) which was set at 5% CO2+95% air, or a low oxygen chamber (hypoxic condition) which was set at 1% O2+5% CO2+94% N2, at 37° C. under saturated humidity.
Influence of hydroxylated C60 fullerene on the survival rate of chondrocytes was evaluated by a cytotoxicity test (XTT method). Hydroxylated C60 fullerene (manufactured by Frontier Carbon Co.) was dissolved in polyethylene glycol to prepare a 10 mM stock, which was then stored in a dark place at −20° C. The concentration of hydroxylated C60 fullerene for the test was 1.0 μM, 10.0 μM, and 100.0 μM.
50 μl each of chondrocytes in the logarithmic growth phase were added into a 96-well microplate at the concentration of 5.0×10^5 cells/ml, and incubated in either a CO2 incubator (normoxic condition) or a low oxygen chamber (hypoxic condition) for 24 hours. Hydroxylated C60 fullerene was added into the 96-well microplate at each target concentration described above (final volume: 100 μl), and the cells were incubated for 48 hours or 96 hours. Then, the medium was replaced to remove hydroxylated C60 fullerene, and the cells were incubated for another 12 hours. To stain surviving cells, 50 μl XTT (2,3bis(2-methoxy-4-nitro-5-sulfophenyl)-5-[(phenylamino)carbonyl]-2H-tetrazolium hydroxide, inner salt) reagent was added to each well, and the cells were incubated for four hours. Immediately thereafter, the absorbance at 450 nm was measured with a plate reader and the cell survival rates were analyzed. The results are shown as survival rates. The survival rate of the control group in a medium alone without hydroxylated C60 fullerene was assumed to be 100%, and the survival rate of the hydroxylated C60 fullerene-administered groups is expressed as relative values against the control group.
On the technique in general: Tetrazolium dyes change colour on reduction, which living cells bring about.

Consider hydroxylated C60 fullerene, for which the “MMP-13 concentration in synovial fluid” value in the data set on MMP-13 [1] is on record as “MMP-13 production inhibitory effect was observed”. Moreover, the “Decrease of chondrocyte-proliferation ability” value in the data set with cultured chondrocytes is “inhibited decrease of chondrocyte-proliferation ability”. In addition, the “MMP-1 concentration in synovial fluid” value with MMP-1 is recorded as “MMP-1 production inhibitory effect was observed”. Besides, the “Production of MMP-13” value in the data set on MMP-13 [2] is recorded as “inhibited in all cases”; with MMP-13 [2] (listed as fullerene) it was “decreased the amount of MMP-13 produced”. The “Inhibitory effect on production of MMP-13” value with MMP-13 [2] (hypoxic condition) is recorded as “also observed”. The “Cell survival rate (%)” value in data set [3] (1.0 μM, 48 hour incubation) amounted to 98.5 ± 6.5%; in data set [3] (1.0 μM, 96 hour incubation) it was 99.6 ± 3.8%; in data set [3] (10.0 μM, 48 hour incubation), 101.3 ± 5.8%; in data set [3] (10.0 μM, 96 hour incubation), 98.2 ± 2.6%; in data set [3] (100.0 μM, 48 hour incubation) it was 99.5 ± 4.2%; in data set [3] (100.0 μM, 96 hour incubation), 103.4 ± 2.2%. The Toxicity to chondrocytes result in data set [3] (1.0-100.0 μM, 48 or 96 hours) is given as “not to be toxic to chondrocytes”.

Values taken from patent publication US8395037B2, “Pharmaceutical compositions for treating/preventing motor organ diseases” (Mitsubishi Corporation, priority 2005, dated 2013).
